The source made the active and inactive calls. The rule behind the calls is not given here.
Key:
Bacillus anthracis [1] = assay: Inhibition of cytopathic effect in Bacillus anthracis Sterne infected mouse RAW264.7 macrophage after 6 hrs by propidium iodide exclusion assay; type: functional, organism-based
Bacillus anthracis [2] = assay: Inhibition of inosine and alanine-induced germination of Bacillus anthracis Sterne spore pre-incubated for 15 mins; type: functional, organism-based
Bacillus anthracis [3] = assay: Inhibition of cytopathic effect in Bacillus anthracis Sterne infected mouse RAW264.7 macrophage at 1 uM to 2 uM after 6 hrs by propidium iodide exclusion assay; type: functional; set-up: scale not given: the % may be the effect or the level left
Bacillus anthracis [4] = assay: Inhibition of cytopathic effect in Bacillus anthracis Sterne infected mouse RAW264.7 macrophage assessed as lack of propidium iodide positive cells after 7 hrs; type: functional, organism-based

Compound	Activity (Bacillus anthracis [1])	Ki (Bacillus anthracis [2])	Activity (Bacillus anthracis [3])	Activity (Bacillus anthracis [4])
Nc1nc(N)c2ncn([C@@H]3O[C@H](CO)[C@@H](O)[C@H]3O)c2n1	inactive	68 µM		
Nc1nc(=S)c2ncn([C@@H]3O[C@H](CO)[C@@H](O)[C@H]3O)c2[nH]1 [THIOGUANOSINE]		98 µM	88%	Active
CSc1ncnc2c1ncn2[C@@H]1O[C@H](CO)[C@@H](O)[C@H]1O	inactive	31 µM		
OC[C@H]1O[C@@H](n2cnc3c(O)nc(O)nc32)[C@H](O)[C@@H]1O [XANTHOSINE]	inactive	777 µM		
COc1nc(N)nc2c1ncn2[C@@H]1O[C@H](CO)[C@@H](O)[C@H]1O	inactive	34 µM		
Nc1nc(Cl)c2ncn([C@@H]3O[C@H](CO)[C@@H](O)[C@H]3O)c2n1	inactive	87 µM		
